From publication PMC9268553 (Molecules, 2022)
“And” between values parts separate entries of the source, which are not always exact repeats. Equal entries are not always repeated. Where two headings read alike, the source gives them in different places.

Experiments:
human fXa = biological target: T1, human fXa (Homo sapiens, UniProt P00742); assay: biochemical
T1 construct: purchased Chromogenix AB-Instrumentation Laboratories (Milan, Italy)

bovine thrombin = biological target: T2, bovine thrombin (Bos taurus, UniProt P00735); assay: thrombin inhibition, chromogenic substrate S-2238; type: biochemical
T2 construct: purchased Sigma-Aldrich (Milan, Italy)

α-chymotrypsin = α-chymotrypsin (Bos taurus, UniProt P00766); assay: α-chymotrypsin inhibition; type: biochemical; settings: read-out: Ki αCHT
AChE (from electric eel) = biological target: T3, AChE (from electric eel) (Electrophorus electricus, UniProt O42275); assay: biochemical; settings: for inhibition at 50 µM: read-out: inhibition percentage AchE
T3 construct: AChE (from electric eel); from tissue
T3 sequence (O42275 24-633): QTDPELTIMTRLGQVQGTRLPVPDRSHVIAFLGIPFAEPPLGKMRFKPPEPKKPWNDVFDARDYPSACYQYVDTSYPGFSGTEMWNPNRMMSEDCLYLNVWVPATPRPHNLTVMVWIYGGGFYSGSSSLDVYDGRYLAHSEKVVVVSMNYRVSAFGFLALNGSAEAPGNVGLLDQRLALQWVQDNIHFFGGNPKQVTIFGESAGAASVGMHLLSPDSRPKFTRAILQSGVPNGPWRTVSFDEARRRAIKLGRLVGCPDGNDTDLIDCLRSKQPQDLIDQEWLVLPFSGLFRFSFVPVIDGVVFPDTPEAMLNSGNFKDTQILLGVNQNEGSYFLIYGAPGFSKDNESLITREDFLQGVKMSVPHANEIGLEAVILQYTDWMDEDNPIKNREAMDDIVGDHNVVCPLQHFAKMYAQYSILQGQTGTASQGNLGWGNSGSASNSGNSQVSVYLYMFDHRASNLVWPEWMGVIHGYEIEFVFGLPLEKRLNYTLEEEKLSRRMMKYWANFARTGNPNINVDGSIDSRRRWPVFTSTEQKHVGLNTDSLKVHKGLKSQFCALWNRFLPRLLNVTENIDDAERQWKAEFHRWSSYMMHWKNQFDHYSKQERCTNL

BChE (from horse serum) = biological target: T4, BChE (from horse serum) (Equus caballus, UniProt P81908); assay: biochemical; settings: for inhibition at 50 µM: read-out: inhibition percentage BchE
T4 construct: BChE (from horse serum); from tissue; host or cells: horse serum
T4 sequence (P81908 whole entry): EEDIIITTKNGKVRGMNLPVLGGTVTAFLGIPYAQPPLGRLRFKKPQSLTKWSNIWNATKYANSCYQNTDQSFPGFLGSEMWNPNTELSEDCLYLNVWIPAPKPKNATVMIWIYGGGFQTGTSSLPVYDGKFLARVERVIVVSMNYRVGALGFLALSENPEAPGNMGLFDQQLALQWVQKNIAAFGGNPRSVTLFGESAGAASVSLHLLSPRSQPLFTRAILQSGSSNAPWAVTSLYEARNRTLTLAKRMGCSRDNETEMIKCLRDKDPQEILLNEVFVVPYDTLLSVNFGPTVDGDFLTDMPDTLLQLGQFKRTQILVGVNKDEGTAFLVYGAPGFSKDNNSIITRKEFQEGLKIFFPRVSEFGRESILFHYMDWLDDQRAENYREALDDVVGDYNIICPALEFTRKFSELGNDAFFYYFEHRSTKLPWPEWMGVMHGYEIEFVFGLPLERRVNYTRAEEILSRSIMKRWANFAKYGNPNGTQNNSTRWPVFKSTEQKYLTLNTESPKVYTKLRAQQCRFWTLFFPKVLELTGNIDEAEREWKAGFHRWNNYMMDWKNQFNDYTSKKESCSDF

[1] = Cheng–Prusoff from IC50, pH 8, mean of three measurements, read-out: Ki fXa
[2] = electric eel AChE, Cheng–Prusoff from IC50, read-out: Ki AchE
[3] = horse serum BChE, Cheng–Prusoff from IC50

T1 sequence (P00742 235-488 limits assumed): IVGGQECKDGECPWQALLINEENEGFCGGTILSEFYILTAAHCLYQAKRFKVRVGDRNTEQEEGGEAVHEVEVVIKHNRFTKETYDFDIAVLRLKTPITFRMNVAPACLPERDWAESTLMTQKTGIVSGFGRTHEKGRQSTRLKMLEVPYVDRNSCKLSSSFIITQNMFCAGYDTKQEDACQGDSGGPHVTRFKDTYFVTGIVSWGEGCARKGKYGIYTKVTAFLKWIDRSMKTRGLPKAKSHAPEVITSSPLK
T1 sequence (P00742 41-179 partner limits assumed): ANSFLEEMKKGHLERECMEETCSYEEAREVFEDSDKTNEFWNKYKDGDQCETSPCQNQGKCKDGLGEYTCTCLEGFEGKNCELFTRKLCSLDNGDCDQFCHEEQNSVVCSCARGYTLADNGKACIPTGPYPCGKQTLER

## N=C(N)c1ccc(NC(=O)CNC(=O)Cc2ccccc2)cc1 [Compound 4a]
Human fXa; [1]
  Ki: > 50000 nM
Bovine thrombin
  Ki: 39.4 µM

## N=C(N)c1cccc(NC(=O)CNC(=O)Cc2ccccc2)c1 [Compound 4b]
Human fXa; [1]
  Ki: 25600 nM
Bovine thrombin
  Ki: 24.1 µM

## N=C(N)c1cccc(NC(=O)CNC(=O)Cc2ccc(-c3ccc(F)cc3F)cc2)c1 [Compound 4c]
Human fXa; [1]
  Ki: 1010 nM
Human fXa; ratio of Ki, relative to 19h
  decrease of anti-fXa activity from malonamide 19h to glycinamide 4c: about 20 times
Bovine thrombin
  Ki: 10.7 µM
α-chymotrypsin
  Ki: 35 µM

## N=C(N)c1ccc(NC(=O)CC(=O)NCc2ccccc2)cc1 [Compound 18a]
Human fXa; [1]
  Ki: 23200 nM
Bovine thrombin
  Ki: > 50 µM

## N=C(N)c1cccc(NC(=O)CC(=O)NCc2ccccc2)c1 [Compound 18b]
Human fXa; [1]
  Ki: 12300 nM
Bovine thrombin
  Ki: > 50 µM

## N=C(N)c1ccc(NC(=O)CC(=O)NCCc2ccccc2)cc1 [Compound 18c]
Human fXa; [1]
  Ki: > 50000 nM
Bovine thrombin
  Ki: > 50 µM

## N=C(N)c1ccc(NC(=O)CC(=O)NCCCc2ccccc2)cc1 [Compound 18d]
Human fXa; [1]
  Ki: 39800 nM
Bovine thrombin
  Ki: 25.5 µM

## N=C(N)c1ccc(NC(=O)CC(=O)NCCCCc2ccccc2)cc1 [Compound 18e]
Human fXa; [1]
  Ki: 18600 nM
Bovine thrombin
  Ki: 5.5 µM

## Cc1ccc(CNC(=O)CC(=O)Nc2ccc(C(=N)N)cc2)cc1 [Compound 19a]
Human fXa; [1]
  Ki: 4400 nM
Bovine thrombin
  Ki: 36.5 µM

## Cc1ccc(CNC(=O)CC(=O)Nc2cccc(C(=N)N)c2)cc1 [Compound 19b]
Human fXa; [1]
  Ki: 4200 nM
Bovine thrombin
  Ki: 36.6 µM

## N=C(N)c1ccc(NC(=O)CC(=O)NCc2ccc(-c3ccccc3)cc2)cc1 [Compound 19c]
Human fXa; [1]
  Ki: > 50000 nM
Bovine thrombin
  Ki: > 50 µM

## N=C(N)c1cccc(NC(=O)CC(=O)NCc2ccc(-c3ccccc3)cc2)c1 [Compound 19d]
Human fXa; [1]
  Ki: 1560 nM
Bovine thrombin
  Ki: > 50 µM
α-chymotrypsin
  Ki: 4.3 µM
AChE (from electric eel); [2]
  Ki: 9.33 µM
BChE (from horse serum)
  inhibition at 50 µM: 28%

## N=C(N)c1cccc(NC(=O)CC(=O)NCc2ccc(-c3ccccc3F)cc2)c1 [Compound 19e]
Human fXa; [1]
  Ki: 930 nM and 932 nM
Bovine thrombin
  Ki: 14.6 µM
α-chymotrypsin
  Ki: > 50 µM
AChE (from electric eel)
  inhibition at 50 µM: 35%
BChE (from horse serum); [3]
  Ki: 7.7 µM

## N=C(N)c1cccc(NC(=O)CC(=O)NCc2ccc(-c3cccc(F)c3)cc2)c1 [Compound 19f]
Human fXa; [1]
  Ki: 350 nM and 348 nM
Bovine thrombin
  Ki: 18.8 µM
α-chymotrypsin
  Ki: 26.5 µM
AChE (from electric eel); read-out: Ki AchE
  Ki: 8.11 µM
BChE (from horse serum)
  Ki: 8.09 µM

## N=C(N)c1cccc(NC(=O)CC(=O)NCc2ccc(-c3ccc(F)cc3)cc2)c1 [Compound 19g]
Human fXa; [1]
  Ki: 910 nM and 907 nM
Bovine thrombin
  Ki: 6.19 µM
α-chymotrypsin
  Ki: > 50 µM
AChE (from electric eel); [2]
  Ki: 4.48 µM
BChE (from horse serum)
  inhibition at 50 µM: 37%

## N=C(N)c1cccc(NC(=O)CC(=O)NCc2ccc(-c3ccc(F)cc3F)cc2)c1 [Compound 19h]
Human fXa; [1]
  Ki: 57 nM
Human fXa; read-out: Ki against fXa
  Ki: 57 nM
Bovine thrombin
  Ki: 16.1 µM
α-chymotrypsin
  Ki: > 50 µM
AChE (from electric eel); [2]
  Ki: 2.44 µM
BChE (from horse serum); [3]
  Ki: 1.52 µM

## N=C(N)c1cccc(NC(=O)CC(=O)NCc2ccc(-c3cc(F)cc(F)c3)cc2)c1 [Compound 19i]
Human fXa; [1]
  Ki: 264 nM
Bovine thrombin
  Ki: 26.7 µM
α-chymotrypsin
  Ki: 30.2 µM
AChE (from electric eel)
  inhibition at 50 µM: 5%
BChE (from horse serum); [3]
  Ki: 8.02 µM

## CC(C)(C(=O)NCc1ccc(-c2ccc(F)cc2F)cc1)C(=O)Nc1cccc(C(=N)N)c1 [Compound 19l]
Human fXa; [1]
  Ki: 214 nM
Bovine thrombin
  Ki: > 50 µM
α-chymotrypsin
  Ki: > 50 µM
AChE (from electric eel)
  Ki: 3.74 µM
BChE (from horse serum); [3]
  Ki: 1.55 µM

## N=C(N)c1cccc(NC(=O)CC(=O)Nc2cccc(OCCc3ccc(F)cc3)c2)c1 [Compound 20a]
Human fXa; [1]
  Ki: 413 nM
Bovine thrombin
  Ki: 12 µM
α-chymotrypsin
  Ki: > 50 µM
AChE (from electric eel); [2]
  Ki: 10 µM
BChE (from horse serum); [3]
  Ki: 1.02 µM

## COc1ccc(CCOc2cccc(NC(=O)CC(=O)Nc3cccc(C(=N)N)c3)c2)cc1 [Compound 20b]
Human fXa; [1]
  Ki: 205 nM
Bovine thrombin
  Ki: 6.66 µM
α-chymotrypsin
  Ki: > 50 µM
AChE (from electric eel); [2]
  Ki: 1.56 µM
BChE (from horse serum); [3]
  Ki: 5.84 µM

## N=C(N)c1cccc(NC(=O)CC(=O)N2CCN(c3ccc(F)cc3)CC2)c1 [Compound 21a]
Human fXa; [1]
  Ki: 423 nM
Bovine thrombin
  Ki: 31.4 µM
α-chymotrypsin
  Ki: > 50 µM
AChE (from electric eel); [2]
  Ki: 4.68 µM
BChE (from horse serum); [3]
  Ki: 10 µM

## N=C(N)c1cccc(NC(=O)CC(=O)N2CCC(Oc3ccc(F)cc3)CC2)c1 [Compound 22a]
Human fXa; [1]
  Ki: 350 nM
Bovine thrombin
  Ki: > 50 µM
α-chymotrypsin
  Ki: > 50 µM
AChE (from electric eel); [2]
  Ki: 1.88 µM
BChE (from horse serum)
  inhibition at 50 µM: 22%

## N=C(N)c1cccc(NC(=O)CC(=O)N2CCC(Oc3ccc(F)cc3F)CC2)c1 [Compound 22b]
Human fXa; [1]
  Ki: 89 nM
Bovine thrombin
  Ki: > 50 µM
α-chymotrypsin
  Ki: > 50 µM
AChE (from electric eel); [2]
  Ki: 2.31 µM
BChE (from horse serum)
  inhibition at 50 µM: 25%

## N=C(N)c1cccc(NC(=O)CC(=O)N2CCC(Oc3ccc(F)c(F)c3)CC2)c1 [Compound 22c]
Human fXa; [1]
  Ki: 120 nM
Bovine thrombin
  Ki: 27 µM
α-chymotrypsin
  Ki: > 50 µM
AChE (from electric eel); [2]
  Ki: 2.68 µM
BChE (from horse serum); [3]
  Ki: 10.9 µM

## N=C(N)c1cccc(NC(=O)CC(=O)Nc2ccc(OC3CCNCC3)cc2)c1 [Compound 23a]
Human fXa; [1]
  Ki: 590 nM
Bovine thrombin
  Ki: 42.4 µM
α-chymotrypsin
  Ki: > 50 µM
AChE (from electric eel)
  inhibition at 50 µM: 1%
BChE (from horse serum); [3]
  Ki: 10 µM

## CC(C)N1CCC(Oc2ccc(NC(=O)CC(=O)Nc3cccc(C(=N)N)c3)cc2)CC1 [Compound 23b]
Human fXa; [1]
  Ki: 2300 nM
Bovine thrombin
  Ki: > 50 µM
α-chymotrypsin
  Ki: > 50 µM
AChE (from electric eel); [2]
  Ki: 1.3 µM
BChE (from horse serum); [3]
  Ki: 0.65 µM
